According to patent US20250263370A1 (Tay Therapeutics Limited, priority 2022, published 2025):
Several values for one entry are separate records, joined by “and”; a condition that tells them apart may be missing. Identical values can stand only once. Entries after “also recorded” stand apart in the source; their conditions may differ.

Experiments:
[1] = Plasma stability assay, human plasma; assay type: in vitro ADME; details: Method 1 (5 μM)
Method: (§1) From stock solution of compound in 10 mM DMSO, a working solution of 1 mM is prepared by diluting the compound in DMSO. To 398 μL of plasma pre-warmed at 37° C. for 15 minutes), 2 μL of working solution of compound is added, resulting in a final concentration of 5 μM (0.5% DMSO) for the compound. The sample is then incubated at 37° C. Aliquot is withdrawn at specified time-points (0, 15, 30, 60 and 120 mins). The reaction is stopped by addition of 450 μL cold acetonitrile containing internal standard (IS). […] Aliquots of the supernatant is analysed using LC-MS/MS. The percent remaining of the compound at each time point is calculated with respect to the control sample (0 min time-point).
(§2) A working solution of compound (500 μM) is prepared in DMSO (100%). To 735 μL of plasma, 15 μL of working solution of compound is added—resulting in a final concentration of 10 μM (2% DMSO) for the compound. The sample is then incubated at 37° C. Aliquot is withdrawn at time-points—0, 15, 30, 60, 90 and 120 mins. The reaction is stopped by using chilled acetonitrile containing internal standard (IS). The samples are centrifuged and the supernatants analyzed using LC-MS/MS. The percent remaining of the compound at each time point is calculated with respect to the control sample (0 min time-point).

renal fibrosis = assay: Unilateral Urethral Obstruction (UUO) renal fibrosis model in rats: body weight, clinical observations, histopathology scores, serum urea, hydroxyproline; assay type: in vivo, rat; set-up: Glomerulosclerosis score / Interstitial nephritis score / Collagen fiber deposition score / Nephropathy score / Total score: scale not given here; details: for Clinical Observation: — = no observation
Text: Unilateral Urethral Obstruction (UUO) is a complex model of renal fibrosis (RF) disease. RF is a common outcome in progressive chronic kidney diseases, characterized by excessive formation of internal scar tissue. Surgical obstruction of urine flow can be used to trigger this disease in rodents. The UUO model allows for evaluation of potential drugs as treatment for RF.
Experimental groups for the study are outlined in Table 10. […] Briefly, animals were anesthetized using a Zoletil/Xylazine mixture (20:1, v:v) for a final dose of 25 mg/kg. The operation area was disinfected with 75% alcohol before shaving. Rats in UUO group were exposed left ureter through a small incision on the left side of the abdomen and ligated with 3-0 silk at two locations about 0.5 cm below the renal hilum. The ureters of sham rats in Group 1 were manipulated but not ligated.
Starting on Day 0, animals in group 2 were administered daily doses of the vehicle for 14 days.
Clinical signs for all animals were monitored and recorded daily. Blind clinical nephropathy scores were conducted for all animals in the study. Glomerulosclerosis, interstitial nephritis, collagen fiber deposition, nephropathy were each assessed for all experimental rats, and a total clinical score was determined for each rat. The scoring system represented the degree or percentage of lesions in the whole kidney. Clinical score assessments were performed on Day 14.
Serum for blood biochemistry analysis was collected into centrifuge tubes without coagulant four hours after final dosing. Blood plasma samples from group 3 was collected into tubes with K2EDTA four hours after final dosing. At the conclusion of the study (end of the 14-day period), animals were euthanized. Kidney tissue was collected four hours after final dosing. Ligated side kidney was divided into three copies ⅓ fix into 10% formalin for H&E analysis, ⅓ into RNA for PCR analysis of tissue biomarkers Col1a1, TGF-b1, MCP-1, IL-1b, IL-6, IL-17, TNF-a, and Timp1, and ⅓ for hydroxyproline assay analyzed by ELISA. RNA was extracted from tissue using the RNeasy mini kit (Qiagen). RNA concentration was measured using a NanoDrop One Spectrophotometer (ThermoFisher) and converted to cDNA using a High-Capacity RNA-to-cDNA kit (Invitrogen). RT-PCR was performed to measure levels of mRNA of different targets using TaqMan® Gene Expression Master Mix and TaqMan® probe/primer sets on a QuantStudio 6, Real-Time PCR System (ThermoFisher). Fold change in target gene expression was determined using the ΔΔCt method.

[2] = Plasma stability assay, mouse plasma; assay type: in vitro ADME; details: Method 1 (5 μM)
Method: as §1, §2

[3] = 30 mg/kg BID for 14 days (group 3)
[4] = Example 101 30 mg/kg, individual animals, histopathology score

Structure (SMILES): CNC(=O)c1[nH]c(C(=O)NC2CCC2)cc1O[C@@H](C)c1ccccc1 (stereo in doubt) [Example 101, N^5-cyclobutyl-N^2-methyl-3-(1-phenylethoxy)-1H-pyrrole-2,5-dicarboxamide]
- Plasma Stability (% remaining at 120 minutes), Human [1]: 93%
- overall effect in UUO / renal fibrosis (renal fibrosis; 30 mg/kg): ameliorates clinical symptoms associated with UUO; also recorded: surprisingly effective against renal fibrosis and renal fibrosis-related conditions
- animals that exhibited diarrhea in addition to soft stools (renal fibrosis; [3]): One animal
- animals that exhibited dirty anuses (renal fibrosis; [3]): Three animals
- body weight over the 14-day study (renal fibrosis; [3]): slight weight loss over the first seven days of the study, and then gained weight over the remaining seven days
- rats that exhibited soft stools during the study (renal fibrosis; [3]): Four
- level of collagen fiber deposition relative to UUO + vehicle (renal fibrosis; 30 mg/kg BID, Day 14): reduced
- level of interstitial nephritis relative to UUO + vehicle (renal fibrosis; 30 mg/kg BID, Day 14): reduced
- level of nephropathy relative to UUO + vehicle (renal fibrosis; 30 mg/kg BID, Day 14): reduced
- pathology staining of kidney (FIG. 13B) (renal fibrosis; 30 mg/kg BID, Day 14): mild interstitial nephritis with neutrophil and lymphocyte infiltration, degeneration and necrosis of renal tubular epithelial cells, and high tubular dilatation
- total clinical scores relative to UUO + vehicle (renal fibrosis; 30 mg/kg BID, Day 14): reduced
- serum urea levels between the three experimental groups (renal fibrosis; 30 mg/kg BID, four hours after final dosing): No significant differences
- hydroxyproline levels between the three experimental groups (renal fibrosis; 30 mg/kg BID, kidney tissue): No significant differences
- Body weight (renal fibrosis; 30 mg/kg, Day 0, individual animals): 324 g and 307 g and 295 g and 302 g and 285 g and 297 g and 294 g and 306 g
- Body weight (renal fibrosis; 30 mg/kg, Day 1, individual animals): 293 g and 284 g (2×) and 277 g (2×) and 279 g and 276 g and 302 g
- Body weight (renal fibrosis; 30 mg/kg, Day 2, individual animals): 299 g (2×) and 274 g (3×) and 275 g and 273 g and 303 g
- Body weight (renal fibrosis; 30 mg/kg, Day 3, individual animals): 306 g and 266 g and 267 g and 274 g (2×) and 278 g and 304 g and 305 g
- Body weight (renal fibrosis; 30 mg/kg, Day 4, individual animals): 315 g and 259 g and 262 g and 276 g and 283 g and 277 g and 309 g and 312 g
- Body weight (renal fibrosis; 30 mg/kg, Day 5, individual animals): 310 g and 263 g and 254 g and 282 g and 284 g and 279 g and 302 g and 315 g
- Body weight (renal fibrosis; 30 mg/kg, Day 6, individual animals): 323 g and 265 g and 258 g and 286 g and 285 g and 284 g and 304 g and 321 g
- Body weight (renal fibrosis; 30 mg/kg, Day 7, individual animals): 322 g and 270 g and 258 g and 297 g and 289 g and 287 g and 307 g and 324 g
- Body weight (renal fibrosis; 30 mg/kg, Day 8, individual animals): 322 g and 271 g and 260 g and 296 g
- Body weight (renal fibrosis; 30 mg/kg, Day 9, individual animals): 331 g and 276 g and 264 g and 303 g
- Body weight (renal fibrosis; 30 mg/kg, Day 10, individual animals): 330 g and 277 g and 261 g and 311 g
- Body weight (renal fibrosis; 30 mg/kg, Day 11, individual animals): 327 g and 275 g and 265 g and 297 g
- Body weight (renal fibrosis; 30 mg/kg, Day 12, individual animals): 318 g and 285 g and 260 g and 291 g
- Body weight (renal fibrosis; 30 mg/kg, Day 13, individual animals): 328 g and 283 g and 276 g and 304 g
- Body weight (renal fibrosis; 30 mg/kg, Day 14, individual animals): 334 g and 286 g and 271 g and 313 g
- Body weight (renal fibrosis; 30 mg/kg, Day −1, individual animals): 306 g and 287 g and 299 g and 295 g and 281 g and 285 g and 296 g and 301 g
- Serum Urea Mean ± SD (renal fibrosis; 30 mg/kg, group mean): 5.85 ± 0.69 mmol/L
- Serum Urea (renal fibrosis; 30 mg/kg, individual animals): 4.95 mmol/L and 6.04 mmol/L and 6.62 mmol/L and 5.01 mmol/L and 5.28 mmol/L and 6.26 mmol/L and 5.90 mmol/L and 6.70 mmol/L
- Collagen fiber deposition score (renal fibrosis; [4]): 2 (2×) and 1 (6×)
- Glomerulosclerosis score (renal fibrosis; [4]): 0
- Interstitial nephritis score (renal fibrosis; [4]): 3 (5×) and 2 (3×)
- Nephropathy score (renal fibrosis; [4]): 2 (2×) and 1 (6×)
- Total score (renal fibrosis; Example 101 30 mg/kg, individual animals, sum of histopathology scores): 7 (2×) and 5 (3×) and 4 (3×)
- Body weight, Mean ± SD (renal fibrosis; group 3, Day 0, group mean): 301 g
- Body weight, Mean ± SD (renal fibrosis; group 3, Day 1, group mean): 284 g
- Body weight, Mean ± SD (renal fibrosis; group 3, Day 2, group mean): 284 g
- Body weight, Mean ± SD (renal fibrosis; group 3, Day 3, group mean): 284 g
- Clinical Observation (renal fibrosis; group 3, Day 3, individual animals): diarrhea
- Body weight, Mean ± SD (renal fibrosis; group 3, Day 4, group mean): 287 g
- Body weight, Mean ± SD (renal fibrosis; group 3, Day 5, group mean): 286 g
- Clinical Observation (renal fibrosis; group 3, Day 5, individual animals): Anal
- Body weight, Mean ± SD (renal fibrosis; group 3, Day 6, group mean): 291 g
- Clinical Observation (renal fibrosis; group 3, Day 6, individual animals): Anal
- Body weight, Mean ± SD (renal fibrosis; group 3, Day 7, group mean): 294 g
- Clinical Observation (renal fibrosis; group 3, Day 7, individual animals): Anal
- Body weight, Mean ± SD (renal fibrosis; group 3, Day 8, group mean): 296 g
- Clinical Observation (renal fibrosis; group 3, Day 8, individual animals): soft
- Body weight, Mean ± SD (renal fibrosis; group 3, Day 9, group mean): 300 g
- Clinical Observation (renal fibrosis; group 3, Day 9, individual animals): soft
- Body weight, Mean ± SD (renal fibrosis; group 3, Day 10, group mean): 303 g
- Clinical Observation (renal fibrosis; group 3, Day 10, individual animals): soft
- Body weight, Mean ± SD (renal fibrosis; group 3, Day 11, group mean): 306 g
- Body weight, Mean ± SD (renal fibrosis; group 3, Day 12, group mean): 304 g
- Body weight, Mean ± SD (renal fibrosis; group 3, Day 13, group mean): 312 g
- Clinical Observation (renal fibrosis; group 3, Day 13, individual animals): soft
- Body weight, Mean ± SD (renal fibrosis; group 3, Day 14, group mean): 314 g
- Clinical Observation (renal fibrosis; group 3, Day 14, individual animals): Anal (2×) and soft
- Body weight, Mean ± SD (renal fibrosis; group 3, Day −1, group mean): 294 g
- Final Hydroxyproline Con., Mean (renal fibrosis; group mean): 0.65 μg/mg tissue
- Final Hydroxyproline Con. (renal fibrosis; individual animals): 0.72 μg/mg tissue (2×) and 0.69 μg/mg tissue and 0.64 μg/mg tissue and 0.60 μg/mg tissue and 0.66 μg/mg tissue and 0.58 μg/mg tissue and 0.55 μg/mg tissue
- Plasma Stability (% remaining at 120 minutes), Mouse [2]: >99%
